From patent US6630485B2, “p38 map kinase inhibitors” (Syntex (U.S.A.) LLC, priority 1997, dated 2003)

Columns and labels:
TNF-α [1] = test: Inhibition of LPS-induced TNF-α production in mice, in vivo assay; conditions: female BALB/c mice, dosed orally at 30 mg, 30 min before 20 μg LPS i.p., serum TNF-α after 1.5 h
Protocol: The ability of the compounds of this invention to inhibit the TNF-α release, in vivo, was determined using a minor modification of the methods described in described in Zanetti, G.; Heumann, D., et. al., “Cytokine production after intravenous or peritoneal Gram-negative bacterial challenge in mice,” J. Immunol., 148, 1890, (1992) and Sekut, L., Menius, J. A., et. al., “Evaluation of the significance of elevated levels of systemic and localized tumor necrosis factor in different animal models of inflammation,” J. Lab. Clin. Med., 124, 813, (1994).
Female BALB/c mice weighing 18-21 grams (Charles River, Hollister, Calif.) were acclimated for one week. Groups containing 8 […] each were dosed orally either with the test compounds dissolved in an aqueous vehicle containing 0.9% sodium chloride, 0.5% sodium carboxymethyl-cellulose, 0.4% polysorbate 80, 0.9% benzyl alcohol (CMC vehicle) or only vehicle (control group). After 30 min., the mice were injected intraperitoneally with 20 μg of LPS (Sigma, St. Louis, Mo.). After 1.5 h, the mice were sacrificed by CO2 inhalation and blood was harvested by cardiocentesis. Blood was clarified by centrifugation at 15,600×g for 5 min., and sera were transferred to clean tubes and frozen at −20° C. until analyzed for TNF-α by ELISA assay (Biosource International, Camarillo, Calif.) following the manufacturer's protocol.
The TNF-α inhibitory activity of test materials, i.e., the measure of the TNF-α content in the test group relative to the vehicle treated group (control group) at 30 mg was: […]

p38 MAP kinase = target: T1, p38 MAP kinase (Homo sapiens, UniProt Q16539); test: Inhibition of p-38 (MAP) kinase, in vitro assay (33P transfer from γ-33P-ATP to Myelin Basic Protein); assay type: biochemical; conditions: phosphorylated recombinant p38 MAP kinase, MBP substrate, 30° C., read-out: IC50 (concentration causing 50% inhibition of the p-38 enzyme)
T1 construct: made in house; host or cells: E. coli
Protocol: The p-38 MAP kinase inhibitory activity of compounds of this invention in vitro was determined by measuring the transfer of the γ-phosphate from γ-^33P-ATP by p-38 kinase to Myelin Basic Protein (MBP), using the a minor modification of the method described in Ahn, N. G.; et al. J. of Biol. Chem. Vol. 266(7), 4220-4227, (1991)
The phosphorylated form of the recombinant p38 MAP kinase was expressed with SEK-1 and MEKK in E. coli (see, Khokhlatchev, A. et al. J. of Biol. Chem. Vol. 272(17), 11057-11062, (1997) and then purified by affinity chromatography using a Nickel column.
The phosphorylated p38 MAP kinase was diluted in kinase buffer (20 mM 3-(N-morpholino)propanesulfonic acid, pH 7.2, 25 mM β-glycerol phosphate, 5 mM ethylene glycol-bis(beta-aminoethyl ether)-N,N,N′,N′-tetraacetic acid, 1 mM sodium vanadate, 1 mM dithiothreitol, 40 mM magnesium chloride). Test compound dissolved in DMSO or only DMSO (control) was added and the samples were incubated for 10 min. at 30° C. The kinase reaction was initiated by the addition of a substrate cocktail containing MBP and γ-^33P-ATP. After incubating for an additional 20 min. at 30° C., the reaction was terminated by adding 0.75% phosphoric acid. The phosphorylated MBP was then separated from the residual γ-^33P-ATP using a phosphocellulose membrane (Millipore, Bedfrod, Mass.) and quantitated using a scintillation counter (Packard, Meriden, Conn.).
The p-38 inhibitory activities (expressed as IC50, the concentration causing 50% inhibition of the p-38 enzyme being assayed) of some compounds of the invention is: […]

TNF-α [2] = test: Inhibition of LPS-induced TNF-α production in THP1 cells, in vitro assay (ELISA); assay type: cell-based; conditions: Homo sapiens; THP-1 cells, LPS 0.5 μg/ml, 2 h; read-out: IC50 (half-maximal reduction in 450 nm absorbance, TNF-α ELISA)
Protocol: The ability of the compounds of this invention to inhibit the TNF-α release was determined using a minor modification of the methods described in described in Blifeld, C. et al. Transplantation, Vol. 51(2), 498-503, (1991).
THP-1 cells were suspended in culture medium [RPMI (Gibco-BRL, Gailthersburg, Md.) containing 15% fetal bovine serum, 0.02 mM 2-mercaptoethanol], at a concentration of 2.5×10^6 cells/ml and then plated in 96 well plate (0.2 ml aliquots in each well). Test compounds were dissolved DMSO and then diluted with the culture medium such that the final DMSO concentration was 5%. 20 μl aliquots of test solution or only medium with DMSO (control) were added to each well. The cells were incubated for 30 min., at 37° C. LPS (Sigma, St. Louis, Mo.) was added to the wells at a final concentration of 0.5 μg/ml, and cells were incubated for an additional 2 h. At the end of the incubation period, culture supernatants were collected and the amount of TNF-α present was determined using an ELISA assay as described below.
The amount of human TNF-α present was determined by a specific trapping ELISA assay using two anti-TNF-α antibodies (2TNF-H22 and 2TNF-H34) described in Reimund, J. M., et al. GUT Vol. 39(5), 684-689 (1996).
Polystyrene 96-well plates were coated with 50 μl per well of antibody 2TNF-H22 in PBS (10 μg/ml) and incubated in a humidified chamber at 4° C. overnight. The plates were washed with PBS and then blocked with 5% nonfat-dry milk in PBS for 1 hour at room temperature and washed with 0.1% BSA (bovine serum albumin) in PBS.
TNF standards were prepared from a stock solution of human recombinant TNF-α (R&D Systems, Minneapolis, Minn.). The concentration of the standards in the assay began at 10 ng/ml followed by 6 half log serial dilution's.
25 μl aliquots of the above culture supernatants or TNF standards or only medium (control) were mixed with 25 μl aliquots of biotinylated monoclonal antibody 2TNF-H34 (2 μg/ml in PBS containing 0.1% BSA) and then added to each well. The samples were incubated for 2 h at room temperature with gentle shaking and then washed 3 times with 0.1% BSA in PBS. 50 μl of peroxidase-streptavidin (Zymed, S. San Francisco, Calif.) solution containing 0.416 μg/ml of peroxidase-streptavidin and 0.1% BSA in PBS was added to each well. The samples were incubated for an additional 1 h at room temperature and then washed 4 times with 0.1% BSA in PBS. 50 μl of O-phenylenediamine solution (1 μg/ml O-phenylene-diamine and 0.03% hydrogen peroxide in 0.2M citrate buffer pH 4.5) was added to each well and the samples were incubated in the dark for 30 min., at room temperature. Optical density of the sample and the reference were read at 450 nm and 650 nm, respectively. TNF-α levels were determined from a graph relating the optical density at 450 nm to the concentration used.
The IC50 value was defined as the concentration of the test compound corresponding to half-maximal reduction in 450 nm absorbance.

T1 sequence (Q16539 whole entry): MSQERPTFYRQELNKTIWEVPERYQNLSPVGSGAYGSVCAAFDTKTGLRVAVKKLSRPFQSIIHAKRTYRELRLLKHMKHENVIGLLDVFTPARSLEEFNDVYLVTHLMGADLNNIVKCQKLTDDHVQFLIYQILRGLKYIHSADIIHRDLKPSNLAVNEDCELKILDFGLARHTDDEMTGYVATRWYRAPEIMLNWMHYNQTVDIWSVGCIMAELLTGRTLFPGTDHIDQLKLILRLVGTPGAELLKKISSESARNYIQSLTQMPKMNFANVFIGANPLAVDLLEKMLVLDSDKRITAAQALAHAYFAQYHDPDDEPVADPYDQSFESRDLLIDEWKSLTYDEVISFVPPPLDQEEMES

Structure (SMILES)	melting point	% Inhibition (TNF-α content in test group relative to vehicle treated group) (TNF-α [1])	IC50 (p38 MAP kinase)	IC50 (TNF-α [2])
Fc1ccc(-c2c(-c3ccncc3)oc3cccnc23)cc1 [compound 101, 3-(4-Fluorophenyl)-2-(pyridin-4-yl)-furo[3,2-b]pyridine]	141 to 143 °C	86%	85.5 nM	
Fc1ccc(-c2c(-c3ccncc3)n(OCCN3CCOCC3)c3cccnc23)cc1 [compound 3, 3-(4-Fluorophenyl)-1-[2-(morpholin-4-yl)ethoxy]-2-(pyridin-4-yl)-1H-pyrrolo[3,2-b]pyridine]	139 to 141 °C	56%	221 nM	
Fc1ccc(-c2c(-c3ccncc3)[nH]c3cccnc23)cc1 [compound 6, 3-(4-Fluorophenyl)-2-(pyridin-4-yl)-1H-pyrrolo[3,2-b]pyridine]	> 285 °C	68%		
Fc1ccc(-c2c(-c3ccncc3)n(OCCN3CCCC3)c3cccnc23)cc1 [compound 5, 3-(4-fluorophenyl)-2-(pyridin-4-yl)-1-[2-(pyrrolidin-1-yl)ethoxy]-1H-pyrrolo[3,2-b]pyridine]	123 to 129 °C		246 nM	120 nM
Fc1ccc(-c2c(-c3ccncc3)[nH]c3ccncc23)cc1 [compound 105, 3-(4-Fluorophenyl)-2-(pyridin-4-yl)-1H-pyrrolo[3,2-c]pyridine]	256 to 257 °C			
Fc1ccc(-c2c(-c3ccncc3)n(OCCN3CCCCC3)c3cccnc23)cc1 [compound 4, 3-(4-Fluorophenyl)-1-[2-(piperidin-1-yl)ethoxy]-2-(pyridin-4-yl)-1H-pyrrolo[3,2-b]pyridine]	95.9 to 98.7 °C			
N#CCCCn1c(-c2ccncc2)c(-c2ccc(F)cc2)c2nccnc21 [compound 108]			747 nM	8830 nM
Fc1ccc(-c2c(-c3ccncc3)n(CCN3CCOCC3)c3cccnc23)cc1 [compound 8, 3-(4-Fluorophenyl)-2-(pyridin-4-yl)-1-[2-(morpholin-4-yl)ethyl]-1H-pyrrolo[3,2-b]-pyridine]	171.2 to 173 °C			
Fc1ccc(-c2c(-c3ccncc3)n(CCN3CCCCC3)c3cccnc23)cc1 [compound 9, 3-(4-Fluorophenyl)-1-[2-(piperidin-1-yl)ethyl]-2-(pyridin-4-yl)-1H-pyrrolo[3,2-b]pyridine]	148.1 to 153.3 °C			300 nM
Fc1ccc(-c2c(-c3ccncc3)[nH]c3nccnc23)cc1 [compound 106, 7-(4-Fluorophenyl)-6-(pyridin-4-yl)-5H-pyrrolo[2,3-b]pyrazine]			120 nM	1100 nM
CCn1c(-c2ccncc2)c(-c2ccc(F)cc2)c2ncccc21 [compound 7, 1-Ethyl-3-(4-fluorophenyl)-2-(pyridin-4-yl)-1H-pyrrolo[3,2-b]pyridine]	204 to 206 °C			
On1c(-c2ccncc2)c(-c2ccc(F)cc2)c2ncccc21 [compound 1, 3-(4-Fluorophenyl)-1-hydroxy-2-(pyridin-4-yl)-1H-pyrrolo[3,2-b]pyridine]	225 to 228 °C			
OCCNc1cc(-c2[nH]c3nccnc3c2-c2ccc(F)cc2)ccn1 [compound 112]			34.4 nM	241 nM
Nc1nccc(-c2oc3cccnc3c2-c2ccc(F)cc2)n1 [compound 103, 2-(2-Aminopyrimidin-4-yl)-3-(4-fluorophenyl)-furo[3,2-b]pyridine]	252.9 to 253.7 °C			
Fc1ccc(-c2c(-c3ccnc(Cl)n3)oc3cccnc23)cc1 [compound 102, 2-(2-Chloropyrimidin-4-yl)-3-(4-fluorophenyl)-furo[3,2-b]pyridine]	224.8 to 225.2 °C			
COn1c(-c2ccncc2)c(-c2ccc(F)cc2)c2ncccc21 [compound 2, 3-(4-Fluorophenyl)-1-methoxy-2-(pyridin-4-yl)-1H-pyrrolo[3,2-b]pyridine]	168 to 171.5 °C	75%	68 nM	460 nM
